The values below come from patent publication EP3329923A1, “THE POTENTIAL OF CRBN-INDEPENDENT IMID RESENSITIZATION BY EPIGENETIC THERAPY” (University of Copenhagen, priority 2016, dated 2018).

One test deals with CRBN. Put plainly: CRBN expression by qPCR after epidrug treatment. The note with it: OPM2-LR and OPM2-PR, monotherapy and combination (Figure 13A). For orientation: Quantitative PCR measures a nucleic acid by following its amplification.
The test system of test [1] is JJN3. In words: Apoptosis assay, epigenetic sensitization in intrinsic IMiD resistance. To be noted: JJN3, baseline IMiD resistance (Figure 13C).
Procedure: Cell apoptosis was evaluated using Annexin V and PI, with the analysis performed on a FACS-Calibur (BD Bioscience).
The present inventors then went on to examine whether the combination of epidrugs was effective in intrinsically IMiD-resistant cell lines.
For test [2], the system named is all IMiD-resistant cell lines. Put plainly: Resensitization to IMiDs after 48 hours epidrug pretreatment, apoptosis and cell cycle assays. The format is cell-based, human. The note with it: epidrug pretreatment for 48 hours, then no treatment vs. 10 µM lenalidomide or pomalidomide; panobinostat as monotherapy or combined with 5-Azacytidine or EPZ-6438.
The next test concerns OPM2-PR. In words: Apoptosis assay (Annexin V and PI), resensitization to IMiDs. To be noted: epidrug treatment 48 hours, then 10 µM lenalidomide or 10 µM Pomalidomide for 3 days (Figure 11B).
Test [3] has as its system KMS12-BM. In words: Apoptosis assay, epigenetic sensitization in intrinsic IMiD resistance. To be noted: baseline IMiD resistance (Figure 13C).
The test system of the next test is EZH2. The note with it: EZH2 over EZH1; cited from earlier work.
A further test concerns U266. Put plainly: Cell proliferation, XTT dye absorbance (IC50 of IMiDs). The format is cell-based. To be noted: Homo sapiens, U-266, 72 h, XTT absorbance 3 days after treatment with IMiDs. An excerpt: (§1) A total of seven commercially available human myeloma cell lines (JJN3, OPM2, RPMI-8226, U266, NCI-H929, LP-1, KMS12-BM) were purchased from DSMZ (Leibniz Institute DSMZ-German Collection of Microorganisms and Cell Cultures, Braunschweig, Germany).
(§2) First, the present inventors tested the sensitivity of all HMCL to both lenalidomide and pomalidomide by generating dose-response curves and calculating the IC50 of both drugs for each cell line (given in tables below).
On the technique in general: Formazan colour is commonly taken as a measure of viable cells.

The subject of a further test is OPM2. The description is as above. The format is cell-based. To be noted: Homo sapiens, OPM-2, 72 h, XTT absorbance 3 days after treatment with IMiDs.
From the text: as §1, §2

For test [4], the system named is JJN3. The description is as above. It counts as cell-based. The note with it: Homo sapiens, JJN-3, 72 h, XTT absorbance 3 days after treatment with IMiDs.
From the text: as §1, §2

The test system of test [5] is KMS12-BM. The description is as above. The format is cell-based. To be noted: Homo sapiens, KMS-12-BM, 72 h, XTT absorbance 3 days after treatment with IMiDs.
From the text: as §1, §2

In the next test the test system is NCI-H929. Described as above. The format is cell-based. To be noted: Homo sapiens, 72 h, XTT absorbance 3 days after treatment with IMiDs.
From the text: as §1, §2

Another test concerns RPMI-8226. The test is described as above. The note with it: Homo sapiens, RPMI-8226, 72 h, XTT absorbance 3 days after treatment with IMiDs. It counts as cell-based.
From the text: as §1, §2

Procedure for OPM2-PR: Cell proliferation (and IC50 for each cell line) was assessed by measuring 2,3-Bis-(2-Methoxy-4-Nitro-5-Sulfophenyl)-2H-Tetrazolium-5-Carboxanilide (XTT) dye absorbance 3 days after treatment with IMiDs. Cell apoptosis was evaluated using Annexin V and PI, with the analysis performed on a FACS-Calibur (BD Bioscience).

As for `CCN(c1cc(-c2ccc(CN3CCOCC3)cc2)cc(C(=O)NCc2c(C)cc(C)[nH]c2=O)c1C)C1CCOCC1` [EPZ-6438, N-((4,6-dimethyl-2-oxo-1,2-dihydropyridin-3-yl)methyl)-5-(ethyl(tetrahydro-2H-pyran-4-yl)amino)-4-methyl-4'-(morpholinomethyl)-[1,1'-biphenyl]-3-carboxamide], in the test with CRBN, the “expression of CRBN” value was “remained low and unchanged”. The “sensitization to lenalidomide and pomalidomide” value in the test on JJN3 [1] was “able to render the cells sensitive to both lenalidomide and pomalidomide”; in the test on KMS12-BM [3], “able to render the cells sensitive to both lenalidomide and pomalidomide”. For the same molecule, the “resensitization to IMiDs (IMiD sensitivity)” value in test [2] is listed as “did not restore IMiD sensitivity”. In the test on OPM2-PR, the “resensitization to lenalidomide and pomalidomide (apoptosis)” value is recorded as “minor resensitization effect”.
Regarding `Nc1ncn([C@@H]2O[C@H](CO)[C@@H](O)[C@H]2O)c(=O)n1` [5-Azacytidine, 4-amino-1-beta-D-ribofuranosyl-1,3,5-triazin-2(1H)-one], the “expression of CRBN” value in the test with CRBN is “remained low and unchanged”. The “resensitization to IMiDs (IMiD sensitivity)” value in [2] is given as “did not restore IMiD sensitivity”.
Consider `Cc1cc(C)c(CNC(=O)c2cc(-c3ccc(CN4CCOCC4)cc3)cc3c2cnn3C2CCCC2)c(=O)[nH]1` [EPZ005687], for which, in the test on EZH2, the “selectivity for EZH2 compared to EZH1” value is reported as 50 fold.
Broadly, the IC50 is the midpoint of a concentration-inhibition curve. Read a high IC50 as lower potency. `Nc1cccc2c1C(=O)N(C1CCC(=O)NC1=O)C2=O` (centres unmarked) [Pomalidomide]: the IC50 in the test with U266 is 60.5 µM; in the test on OPM2, 2.01 µM; with JJN3 [4] it was 87.3 µM; in the test on KMS12-BM [5] it was 15.2 µM; in the test with NCI-H929, 0.003 µM; with RPMI-8226, 98.3 µM.
Regarding `Nc1cccc2c1CN(C1CCC(=O)NC1=O)C2=O` (centres unmarked) [Lenalidomide], the IC50 worked out at 68.1 µM in the test with U266; 5.01 µM with OPM2; 136 µM in the test on JJN3 [4]; 20.8 µM in the test with KMS12-BM [5]; 0.563 µM in the test with NCI-H929; 118 µM with RPMI-8226.
